Assay results published in patent US20060189539A1, “Novel GnRH analogues with antitumour effects and pharmaceutical compositions thereof” (priority 1994, published 2006).
Entries after “also recorded” stand apart in the source; their conditions may differ.

How the values were obtained:
[1] = test system: MCF-7 human mammary carcinoma cells; assay: In vitro inhibition of cell proliferation (cell count), Example 19; format: cell-based; conditions: 30 μM of active substance, conjugate, treated once, cell count on 7th day
Method: (§1) The procedure of treatment was as follows. After trypsinization the cells, 400,000 cells of MCF-7, MDA-MB-231 human mammary carcinoma, PC3 human prostate carcinoma or Ishikawa human endometrium tumour each were passed into Petri dishes of 10 cm in diameter. Starting from the day following transfer, the cells were treated with the substances to be tested in solution prepared with the nutrient medium during the exponential growth phase. The cultures were treated with 1 to 50 μM (calculated for the total volume of the culture) of MI-1544 GnRH antagonist, MI-1892 chicken GnRH antagonist or SJ-1004 GnRH […] on the 7th day.

[2] = test system: MDA-MB-231 human mammary carcinoma cells; assay: as above; format: cell-based; conditions: 30 μM of active substance, conjugate, treated once, cell count on 7th day
Method: as §1

MDA-MB-231 xenograft = assay: In vivo antitumour effect on MDA-MB-231 xenograft; design: species or system immunosuppressed CBA/Ca mice; conditions: for Animals from 7 treated that became tumour-free: 6th week of treatment, 100 μg daily s.c.; for Tumour-free animals: end of the 6th week, first series
Method: (§2) The immunosuppression of mice was carried out by using the method of Steel et al. (1978).
(§3) CBA/Ca female mice of about 6 weeks old were thymectomized and then, after one week, they were irradiated with 60Co (whole body irradiation; the lethal dose is 9.5 Gray). Within 24 hours 3 to 5×10^5 myelocytes were injected to the animals. Beneath the skin of the immunosuppressed mice 2×10^7 tumour cells or, in the case of later passages, about 2 mm^3 of tumour cells or in the case of later, additional passages about 2 mm^3 of tumour pieces were implanted. […] The treatment with steroid hormone was stopped by at least one week before beginning the investigation.
(§4) Recent investigations have begun on 28 animals bearing MCF-7 xenograft .and on 28 animals bearing MDA-MB-231 xenograft. On animals bearing MCF-7 tumour the treatment was commenced in the 5th week following xeno-transplantation; the tumour volume was 205 to 225 mm^3. On animals bearing MDA-MB-231 tumour, the treatment was started in the 4th week after xeno-transplantation with a tumour volume of 140 to 150 mm^3. […] The control groups were daily treated with physiological saline s.c. (Each treated group consisted of 7 animals.)
A more recent study was started on 28 animals bearing. MDA-MB-231 xenograft. The treatment was begun in the 4th or 5th week following xenotransplantation. The tumour volume was 0.165 to 0.194 cm3. […] (For treatment of the control group, see the preceding Examples). Each group consisted of 7 animals.

[3] = test system: MCF-7 human mammary carcinoma cell line; assay: Inhibition of colony formation (dose-survival), Example 48; format: cell-based; conditions: 10 μM
Excerpt: MCF-7 human mammary carcinoma cell line was stabilized in 1973 by Soule et al. from the pleural fluid of a patient suffering from mammary carcinoma. MDA-MB-231 human mammary carcinoma cell line was isolated and stabilized by Cailleau et al. in 1974 similarly from pleural fluid. Both cell lines grow in monolayer. […] MCF-7 cell line is estradiol receptor (ER)-positive containing proteins specifically binding GnRH. Thus, it represents, a useful model system for investigating the direct effect of GnRH mediated by the GnRH receptor. Being ER-negative and GnRH receptor-positive, MDA-MB-231 cell line is similarly suitable to study the direct effect of GnRH. PC3 human prostate carcinoma cell line was stabilized in cell culture by Kaighn et al. in 1979. The cells are of epithelial type and form compact colonies in clonogenic assays. The Ishikawa cell line originates from human endometrial adenocarcinoma [M. Nishida et al.: Acta Obstet. Gynecol. Jpn. 37, 1103-1111 (1985)], it is epithelial in its character and contains steroid-as well as GnRH receptors. The examination gives accurate information about the cell-damaging effect of the substance tested as a function of varying doses. The treatment was carried out once; the colonies formed from the surviving cells were counted after 8-12 days. […] A part of the arrested cells again entered the cycle, an other part of them might be destroyed (apoptosis). […] The treatment was once carried out 24 hours after setting, then the colonies formed were counted after 8-12 days. The cells were treated once after 24 hours with 1-50 μM of various GnRH analogues of Examples above or with 1-50 μM of GnRH-III, respectively. The percentages of inhibition obtained on MCF-7, MDA-MB-231, PC3 and Ishikawa cells, respectively, together with the dose of the active agent used are shown in Table VIII.

[4] = test system: PC3 human prostate carcinoma cell line; assay: Inhibition of colony formation (dose-survival), Example 18; format: cell-based; conditions: for Inhibition of colony formation: 30 to 50 μM
Excerpt: (§5) Human cell lines used in in vitro experiments. MCF-7 human mammary tumour cell line was stabilized in 1973 by Soule et al. from the pleural fluid of mammary carcinoma patients. The cells grow in monolayer and are epithelial in their character. MDA-MB-231 human mammary carcinoma cell line was isolated and stabilized in 1974 by Cailleau et al. similarly from pleural fluid. These cells also grow in monolayer. PC3 human prostate carcinoma cell line was stabilized 20 in 1979 in cell culture by Kaighn et al.; the cells are of simple epithelium type and form compact colonies in clonogenic assays. Ishikawa cell line originated from adenocarcinoma of human endometrium [Nishida et al.: Obstet. Gynecol. Jpn, 37, 25 1103-1111 (1985)], has epithelial character and contains steroid as well as GnRH receptors. Human tumour cell lines are maintained in plastic flasks (Greiner) in Dulbecco-6modified Eagle-MEM (DMEM GIBCO) nutritive medium. The medium used herein contained 10% of fetal calf serum (FCS).
(§6) In the case of cytostatics the cell-damaging effect is not cell-specific. […] One part of the arrested cells again go into the cycle, the other part may perish (apoptosis). […] The investigations were carried out on MCF-7 and MDA-MB-231 human mammary carcinoma cell lines, PC3 human prostate 15 carcinoma cell line and Ishikawa human endometrium carcinoma cell line. Threehundred cells were set into Petri dishes of 3.5 cm in diameter each. The treatment was carried out once, 24 hours following the explantation, then the colonies formed were counted after 9 to 12 days.

[5] = test system: Ishikawa human endometrium carcinoma cell line; assay: as above; format: cell-based; conditions: for Inhibition of colony formation: 30 to 50 μM
Excerpt: as §5, §6

[6] = test system: MDA-MB-231 human mammary carcinoma cell line; assay: as above; format: cell-based; conditions: 50 μM
Excerpt: as §5, §6

[7] = test system: MCF-7 human mammary carcinoma cell line; assay: as above; format: cell-based; conditions: 50 μM
Excerpt: as §5, §6

[8] = test system: PC3 human prostate carcinoma cells; assay: In vitro inhibition of cell proliferation (cell count), Example 19; format: cell-based; conditions: 30 μM of active substance, conjugate, treated once
Method: The procedure of treatment was as follows. After trypsinization the cells, 400,000 cells of MCF-7, MDA-MB-231 human mammary carcinoma, PC3 human prostate carcinoma or Ishikawa human endometrium tumour each were passed into Petri dishes of 10 cm in diameter. Starting from the day following transfer, the cells were treated with the substances to be tested in solution prepared with the nutrient medium during the exponential growth phase. […]

MCF-7 xenograft = assay: In vivo antitumour effect on MCF-7 xenograft; design: species or system immunosuppressed CBA/Ca mice; conditions: for Influence on the rate of tumour growth: first study, conjugates 150 μg in every 3rd day, P-GFLG-OH daily s.c. corresponding to 50 μg
Method: as §2, §3
In the case of MCF-7 tumours (xenografts) the examinations were carried out with passages being in the phase of the 37th and 38th, respectively, transplantations.
In the case of mice bearing MCF-7 xenograft, the treatment was begun in the 4th week following xeno-transplantation.
as §4

[9] = test system: Ishikawa human endometrium tumour cells; conditions: 30 μM of active substance, conjugate, treated once
Excerpt: The procedure of treatment was as follows. After trypsinization the cells, 400,000 cells of MCF-7, MDA-MB-231 human mammary carcinoma, PC3 human prostate carcinoma or Ishikawa human endometrium tumour each were passed into Petri dishes of 10 cm in diameter. […]

[10] = Castration effect: uterus weight of xenograft-bearing animals; format: in vivo, mice
B-lymphocytes = assay: Humoral immune response (antibody production of B-lymphocytes); format: in vivo, mice; conditions: dose not stated
MXT mouse mammary tumour = assay: In vivo antitumour effect on MXT mouse mammary tumour; design: species or system CBA/Ca mice; conditions: 75 μg/day/animal s.c.; day 17
Method: The MXT mouse mammary carcinoma contains ER and PgR proteins; furthermore, it contains also GnRH receptors; therefore, this in vivo tumor model is suitable for studying both the direct and indirect effects. The treatment of mice bearing MXT mammary tumour was commenced on the day following transplantation. […] The animals were daily treated in s.c. route starting from the day following transplantation of MXT mouse mammary tumour. […] MI-1544: 75 μg/day/animal; MI-1892: 75 μg/day/animal.

T-lymphocytes = assay: Cellular immune response (rosette formation against BRBC antigen); format: in vivo, mice; conditions: dose not stated
Excerpt: The immunosuppressive side effect of cytostatics used in tumour therapy is commonly known. This effect can be compensated to a certain grade by various immunostimulants (endotoxin, levamisole). Polypeptides with much […] molecular weights (about 40,000 to 80,000) are also capable of protecting against immunosuppressive effect [Gal et al.: J. Biol. Resp. Modif. 5, 148-159 (1986)). The molecular weight of the novel polyanionic P-GFLG-OH macromolecule tested by us is about 10,000, that of MI-1892 is about 2000, i.e. relatively low; therefore, their immunostimulatory activity was unexpected.

ovulation of female rats = assay: Ovulation / cycle of female rats during treatment for three cycles; format: in vivo, rat; conditions: high dose of the coupled GnRH-III; three cycles observed
Excerpt: In 1993, researchers isolated and synthesized the Lamprey-III-GnRH decapeptide from lamprey (Petromyzon marinus) (p[…]NH2).
On comparison to healthy individuals, the functioning of the protective mechanism (immunostatus) of patients suffering from tumour is more unfavourable. Since the protective (immune) mechanism is enhanced by the compound, its tumour-inhibiting action can more strongly become valid. […] This effect may particularly be preferred on young patients suffering from mammary tumour, where a castration would cause psychic disturbances. In a way different from other conjugates, P-GFLG-GnRH-III gradually induces an inhibition of continually increasing grade during the long-lasting treatment for 7 weeks; and at the end of treatment, tumour-free animals are observed whereas in the case of other conjugates the degree of inhibition increases only up to the fifth week of treatment, then a stagnation in the grade of inhibition can be observed.

[11] = animals bearing MCF-7 xenografts, treatment for four weeks
[12] = animals bearing MDA-MB-231 xenografts, treatment for twelve weeks

Substance | % Inhibition of cell division [1] [%] | % Inhibition of cell division [2] [%] | Animals from 7 treated that became tumour-free (MDA-MB-231 xenograft) | Tumour-free animals (MDA-MB-231 xenograft) | Inhibition of colony formation [4] [%] | Inhibition of colony formation [5] [%] | % Inhibition of cell division [8] [%] | Inhibition % (MCF-7 xenograft; 1 × 50 μg, week 2) [%] | Influence on the rate of tumour growth (MCF-7 xenograft) | % Inhibition of cell division [9] [%] | Decrease of uterus weight [10, 11] [%] | Decrease of uterus weight [10, 12] [%] | further results
Ac-D-Trp1,3,D-Cpa2,{D-Lys[n-poly-(N-vinylpyrrolidone-co-maleic acid)-Gly-Phe-Leu-Gly]}6. D-Ala10-GnRH [P-GFLG-1544] | 58 | 45 | 1 | A tumour-free animal was found | 100 | 100 | 68.5 | 30 | not influenced | 95 | 42 | 50 | Tumour volume (MDA-MB-231 xenograft; 1 × 50 μg daily s.c., week 2): 0.21 cm3; Tumour volume (MDA-MB-231 xenograft; 1 × 50 μg daily s.c., week 3): 0.24 cm3; Tumour volume as control (%) (MDA-MB-231 xenograft; 1 × 50 μg daily s.c., week 3): 66%; Tumour volume (MDA-MB-231 xenograft; 1 × 50 μg daily s.c., week 6): 0.36 cm3; Tumour volume as control (%) (MDA-MB-231 xenograft; 1 × 100 μg daily s.c., week 3): 65%; % Inhibition of colony formation [3]: 15%; % Inhibition of colony formation ([4]; 10 μM): 100%; % Inhibition of colony formation ([4]; 50 μM): 100%; % Inhibition of colony formation [6]: 100%; % Inhibition of colony formation [7]: 100%; Inhibition % (MCF-7 xenograft; 1 × 50 μg, week 6): 49%; Tumour volume as control (%) (MCF-7 xenograft; 1 × 50 μg, week 6): 51%; Tumour-free animals (MCF-7 xenograft; repeated study, 6th week): a tumour-free animal was found
Ac-D-Trp^1,3,D-Cpa^2,{Lys[n-poly(N-vinyl pyrrolidone-co-maleic acid)-Gly-Phe-Leu-Gly-]}5, [a-Asp(DEA)]6, D-Ala10-GnRH [P-GFLG-1892] | 45 | 42 |  | A tumour-free animal was found | 100 | 100 | 51 | 30 | not influenced | 91 | 39 | 20 | Effect on the humoral immune response (B-lymphocytes): strengthened; also recorded: immunostimulatory effect; Tumour volume as control (%) (MXT mouse mammary tumour): 36%; Tumour volume (MDA-MB-231 xenograft; 1 × 75 μg daily s.c., week 6): 0.33 cm3; % Inhibition of colony formation ([5]; 30 μM): 100%; Effect on the cellular immune response (activity of T-lymphocytes against BRBC antigen) (T-lymphocytes): increased; also recorded: twofold
{Lys[n-poly(N-vinylpyrrolidone-co-maleic acid)-Gly-Phe-Leu-Gly-]}8,-GnRH-III [P-GFLG-GnRH-III] |  |  | 2 |  |  |  |  |  |  |  |  |  | Influence on the cycle of female rats (castration effect) (ovulation of female rats): not influenced; Tumour volume (MDA-MB-231 xenograft; 1 × 100 μg daily s.c., week 6): 0.40 cm3
